# Columns and labels:
# Test in all cases: relative viability (nuclei count vs DMSO), 5 days (fraction); higher = more cells survive
# [1] = compound: CN1CCN(c2ccc3nc(-c4c(N)c5c(F)cccc5[nH]c4=O)[nH]c3c2)CC1 [Dovitinib] + COc1cccc2cc(-c3nc([C@H]4CC[C@H](C(=O)O)CC4)n4ncnc(N)c34)[nH]c12 [OSI-027] (partner 0.5 µM)
# Outline: (§1)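 Lung cancer cell lines were seeded in 1536-well plates and dosed by pin tool the next day, with either a single drug or a fixed anchor-drug dose combined with five library-drug doses (not always all listed) spaced in √10 steps. Five days later, one step fixed the cells and stained their nuclei (final 0.05% Triton X-100, 1% formaldehyde, 1 ug/ml Hoechst), and nuclei were counted on 4× images. Relative viability is the nuclei count in treated wells divided by the count in vehicle wells, and each value is the median of duplicate plates.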
# [2] = compound: CN1CCN(c2ccc3nc(-c4c(N)c5c(F)cccc5[nH]c4=O)[nH]c3c2)CC1 [Dovitinib] + C[C@@H](Oc1cc(-c2cnn(C3CCNCC3)c2)cnc1N)c1c(Cl)ccc(F)c1Cl [Crizotinib] (partner 1 µM)
# Outline: as §1
# [3] = compound: CN1CCN(c2ccc3nc(-c4c(N)c5c(F)cccc5[nH]c4=O)[nH]c3c2)CC1 [Dovitinib] + C[C@]1(O)C[C@@H](c2nc(-c3ccc4ccc(-c5ccccc5)nc4c3)c3c(N)nccn32)C1 [Linsitinib] (partner 1 µM)
# Outline: as §1
# [4] = compound: CN1CCN(c2ccc3nc(-c4c(N)c5c(F)cccc5[nH]c4=O)[nH]c3c2)CC1 [Dovitinib] + Cc1cc(Nc2cc(N3CCN(C)CC3)nc(Sc3ccc(NC(=O)C4CC4)cc3)n2)n[nH]1 [Tozasertib] (partner 0.1 µM)
# Outline: as §1
Cell Line,relative viability ([1]; first compound 0.02 µM),relative viability ([1]; first compound 0.06325 µM),relative viability ([1]; first compound 0.2 µM),relative viability ([1]; first compound 0.6325 µM),relative viability ([1]; first compound 2 µM),relative viability ([2]; first compound 0.02 µM),relative viability ([2]; first compound 0.06325 µM),relative viability ([2]; first compound 0.2 µM),relative viability ([2]; first compound 0.6325 µM),relative viability ([2]; first compound 2 µM),relative viability ([3]; first compound 0.02 µM),relative viability ([3]; first compound 0.06325 µM),relative viability ([3]; first compound 0.2 µM),relative viability ([3]; first compound 0.6325 µM),relative viability ([3]; first compound 2 µM),relative viability ([4]; first compound 0.02 µM),relative viability ([4]; first compound 0.06325 µM),relative viability ([4]; first compound 0.2 µM),relative viability ([4]; first compound 0.6325 µM),relative viability ([4]; first compound 2 µM)
LXF-289,0.771,0.813,0.952,0.873,0.744,0.736,0.816,0.789,0.794,0.838,0.907,0.942,0.935,0.939,0.878,0.214,0.228,0.195,0.189,0.171
UMC-11,0.467,0.39,0.523,0.47,0.497,0.636,0.716,0.576,0.514,0.733,0.983,1.1,0.986,1.07,1.07,0.213,0.201,0.203,0.199,0.22
LC-2-ad,0.879,0.929,0.984,0.744,0.831,0.486,0.436,0.5,0.453,0.465,0.798,0.919,0.84,0.782,0.773,0.563,0.487,0.465,0.369,0.498
SK-MES-1,0.56,0.591,0.605,0.601,0.612,1.04,0.957,0.932,1.01,0.954,1.09,1.02,1.09,1.15,1.07,0.861,0.934,0.893,0.835,0.983
A-427,0.524,0.432,0.455,0.452,0.399,0.854,0.812,0.85,0.708,0.819,1.05,1.07,1.14,1.09,1.08,0.222,0.201,0.203,0.162,0.225
NCI-H322M,0.518,0.526,0.557,0.502,0.608,0.893,0.874,0.976,0.928,1.06,0.945,0.853,0.973,0.943,0.892,0.482,0.497,0.523,0.436,0.493
HCC-366,0.807,0.829,0.848,0.914,0.791,0.571,0.6,0.486,0.61,0.562,0.645,0.584,0.549,0.665,0.592,0.0642,0.143,0.14,0.127,0.111
NCI-H1975,0.749,0.735,0.732,0.664,0.666,0.898,0.934,1.02,0.937,0.95,0.903,0.954,0.915,0.934,1.09,0.72,0.754,0.763,0.689,0.685

# Source: the supplement of paper PMC10307832
